From ChEMBL document CHEMBL1177690, “Target-specific control of lymphoid-specific protein tyrosine phosphatase (Lyp) activity” (Bioorg Med Chem, 2010)

Assay: Inhibition of Lyp CCPGCC mutant expressed in Escherichia coli […]

O=C(O)c1ccccc1-c1c2ccc(=O)c([As]3SCCS3)c-2oc2c([As]3SCCS3)c(O)ccc12
IC50: 625 nM
